Test results taken from patent publication US20130059900A1, “CRYSTAL FORM I OF (S)-4-HYDROXY-2-OXO-1-PYRROLIDINE ACETAMIDE, PREPARING METHOD AND USE THEREOF” (priority 2010, published 2013).

Test system: rats having permanent occlusion of the bilateral carotid arteries
Assay: Morris Water Maze, memory dysfunction of rats caused by chronic cerebral ischemia
Assay type: in vivo, SD male rats
Conditions: once per day for 37 days; for swimming time of the rats in the target: cerebral ischemia rats
Procedure: The protective effects of crystal form I of (S)-oxiracetam on memory dysfunction of rats caused by chronic cerebral ischemia. Material and method: The crystal form I of (S)-oxiracetam prepared in Example 1 and oxiracetam (batch number: 20071101, from Dong Ze Pharmaceutical Science and Technology Co., Ltd., Chong Qing, China) were prepared with normal saline solution freshly on being used. 40 SD male rats were used as experimental animals, and each of them was in a weight of 190 g to 220 g (purchased from Southwest Hospital, Chong Qing, China). The experimental animals were separated into four groups at random (10 animals per group): sham-operation group, cerebral ischemia group, experimental group with treatment of crystal form I of (S)-oxiracetam, control group with treatment of oxiracetam. The experimental group was treated with 100 mg/kg crystal form I of (S)-oxiracetam by intragastric administration, while the control group was treated with 200 mg/kg oxiracetam by intragastric administration, and both of the two group were treated once per day for 37 days since the day of beginning the surgery. The rats having permanent occlusion of the bilateral carotid arteries were used as model animals of cerebral ischemia group. The cerebral ischemia group, the experimental group and the control group were abdominally anaesthetized by 40 mg/kg pentobarbital natrium. The No. 4 threads were used to separate and ligate the bilateral carotid arteries. The arteries were cut at a position between the near and the far ligation points, and then the wounds made by cut were surgically stitched. The sham-operation group underwent surgery of separation of the bilateral carotid arteries and the wounds made by the surgeries were surgically stitched right away. The body temperature of the animals are maintained during the surgeries. Morris Water Maze system was used to assayed learning and memory ability of rats (diameter: 120 cm, height: 40 cm; purchased from Institute of Materia Medica (IMM), Chinese Academy of Medical Sciences & Peking Union Medical College). […]

SMILES: NC(=O)CN1CC(O)CC1=O (racemic) [oxiracetam, reference compound]
- swimming time of the rats in the target (200 mg/kg intragastric, oxiracetam control group): 31.23 ± 5.03 s

SMILES: NC(=O)CN1C[C@@H](O)CC1=O [crystal form I of (S)-oxiracetam, (S)-4-hydroxy-2-oxo-1-pyrrolidine acetamide]
- swimming time of the rats in the target (100 mg/kg intragastric, vs 20.18±5.26 seconds, P<0.01): 35.23 ± 7.03 s
- escape latent periods (100 mg/kg intragastric, compared with sham-operation group, cerebral ischemia group and oxiracetam control group): shorter escape latent periods
